For 22 compounds, CC50 and EC50 results are on record in patent US20230091047A1 (priority 2019, published 2023).

Each structure is given as a SMILES string. Where two headings read alike, the source gives them in different places. A value given as a limit tells only on which side of the number the result lay.

The nature of one series: in vitro. The format is cell-based. Particulars: HepG2 or HepG2.117 cells, ATPlite, mean value. Put shortly: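 Luminescent ATP quantitation served as the viability endpoint following a 3- or 4-day incubation with test compounds.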
(ATP-based viability assays read luminescence as a measure of living cells.)

Series [1] relates to HBV (HepG2.117 cell line, inducibly HBV producing). The experiment in a line: Anti-HBV activity: intracellular HBV DNA by real-time PCR in HepG2.117 cells after 3 days of treatment. The format is cell-based, hepatitis B virus. Particulars: Hepatitis B virus, HepG2.117, 72 h, read-out: EC50 (μM, mean value). The method in brief:
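First, HBV replication is induced in HepG2.117 cells by doxycycline absence. Next, serially diluted compound is added for 3 days. Finally, intracellular HBV DNA is quantified by HBV-specific real-time PCR.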

Where [2] appears, read: human, 3-days incubation (unmarked values).
Where [3] appears, read: HepG2.117 cells, 3 days of treatment, intracellular HBV DNA by real-time PCR, mean value.
The mark [4] stands for this setting: human, 3-days incubation (not marked with *).
[5] abbreviates: HepG2.117 cells, intracellular HBV DNA by real-time PCR, 3 days of treatment, mean value.

In the case of `COc1ccccc1-n1c(NCc2ccc(Cl)cc2Cl)nc2c(c1=O)CCN(C(=O)c1ccc(Cl)c(Cl)c1)C2` [Compound C30, 7-(3,4-dichlorobenzoyl)-2-{[(2,4-dichlorophenyl)methyl]amino}-3-(2-methoxyphenyl)-5,6,7,8-tetrahydropyrido[3,4-d]pyrimidin-4(3H)-one], in “in vitro” (setting [2]), the cytotoxic concentration (CC50) (usually the concentration giving 50% cytotoxicity) at 3 days was > 50 µM. Besides, the EC50 (commonly the concentration that produces a half-maximal response) in series [1] (setting [3]) is > 50 µM.
For `CNC(=O)c1ccc(-n2c(NC(C)C)nc3c(c2=O)C[C@@H](C)N(C(=O)c2cc(F)c(Br)cc2F)C3)cc1` [Compound C574], the CC50 at 3 days in the series “in vitro” (setting [4]) is > 50 µM. In addition, the EC50 in series [1] (setting [5]) turned out to be 0.73 µM.
Regarding `CC(C)Nc1nc2c(c(=O)n1-c1ccc(-c3cnccn3)cc1)CCN(C(=O)c1ccc(Cl)c(Cl)c1)C2` [Compound C176, 7-(3,4-dichlorobenzoyl)-2-[(propan-2-yl)amino]-3-[4-(pyrazin-2-yl)phenyl]-5,6,7,8-tetrahydropyrido[3,4-d]pyrimidin-4(3H)-one], the CC50 at 3 days in “in vitro” (setting [2]) was found to be 8.7 µM. Besides, the EC50 in series [1] (setting [3]) turned out to be 0.57 µM.
`O=C(c1ccc(Cl)c(Cl)c1)N1CCc2c(nc(NCc3ccccc3)n(-c3ccccc3)c2=O)C1` [Compound C33, 2-(benzylamino)-7-(3,4-dichlorobenzoyl)-3-phenyl-5,6,7,8-tetrahydropyrido[3,4-d]pyrimidin-4(3H)-one]: it took 24.4 µM to reach half-maximal cytotoxicity in “in vitro” (setting [2]) (CC50 at 3 days). The EC50 in series [1] (setting [3]) turned out to be 4.27 µM.
In the case of `CNC(=O)c1ccc(-n2c(N[C@@H](C)c3ccccc3C(F)(F)F)nc3c(c2=O)C[C@@H](C)N(C(=O)c2ccc(Cl)c(Cl)c2)C3)cc1` [Compound C443], the CC50 at 3 days in the series “in vitro” (setting [4]) amounted to 7.2 µM. For the same compound, the concentration for a half-maximal effect (EC50) in series [1] (setting [5]) is 0.45 µM.
On to `CNC(=O)c1ccc(-n2c(N[C@@H](C)c3ccc(F)cc3F)nc3c(c2=O)C[C@@H](C)N(C(=O)c2ccc(Cl)c(Cl)c2)C3)cc1` (single isomer, unassigned) [Compound C689b], for which the midpoint of cytotoxicity in “in vitro” (setting [4]), the CC50 at 3 days, lay at 27.3 µM. In series [1] (setting [5]), the EC50 was 0.46 µM.
In the case of `COc1ccc(CNc2nc3c(c(=O)[nH]2)CCN(C(=O)c2ccc4occc4c2)C3)cc1` [Compound C81, 7-(1-benzofuran-5-carbonyl)-2-{[(4-methoxyphenyl)methyl]amino}-5,6,7,8-tetrahydropyrido[3,4-d]pyrimidin-4(3H)-one], the CC50 at 3 days in the series “in vitro” (setting [2]) is > 50 µM. Besides, the EC50 in series [1] (setting [3]) was found to be 4.49 µM.
In turn, `COc1ccccc1-n1c(NC2CCC2)nc2c(c1=O)CCN(C(=O)c1ccc(Cl)c(Cl)c1)C2` [Compound C32, 2-(cyclobutylamino)-7-(3,4-dichlorobenzoyl)-3-(2-methoxyphenyl)-5,6,7,8-tetrahydropyrido[3,4-d]pyrimidin-4(3H)-one] registered a CC50 at 3 days in the series “in vitro” (setting [2]) of 29.5 µM. For the same compound, the EC50 in series [1] (setting [3]) was 19.9 µM.
In “in vitro” (setting [4]), `CNC(=O)c1ccc(-n2c(N[C@@H](C)c3ccccc3Cl)nc3c(c2=O)C[C@@H](C)N(C(=O)c2ccc(Cl)c(Cl)c2)C3)cc1` [Compound C445] displayed a CC50 at 3 days of 24.1 µM. For the same compound, in series [1] (setting [5]), the EC50 is 0.28 µM.
Regarding `CC(C)Nc1nc2c(c(=O)n1-c1ccc(S(C)(=O)=O)cc1)CCN(C(=O)c1nc3ccc(Cl)cc3[nH]1)C2` [Compound C163, 7-(6-chloro-1H-benzimidazole-2-carbonyl)-3-[4-(methanesulfonyl)phenyl]-2-[(propan-2-yl)amino]-5,6,7,8-tetrahydropyrido[3,4-d]pyrimidin-4(3H)-one], the CC50 at 3 days in “in vitro” (setting [2]) is > 50 µM. Moreover, in series [1] (setting [3]), the EC50 was 4.45 µM.
In the same order, the values of `CNC(=O)c1ccc(-n2c(NC(C)c3ccnn3C)nc3c(c2=O)C[C@@H](C)N(C(=O)c2ccc(Cl)c(Cl)c2)C3)cc1` (some centres unmarked) [Compound C372] are > 50 µM and 11.7 µM.
In the same order, the values of `CC(C)Nc1nc2c(c(=O)n1-c1ccc(-c3nccn3C)cc1)C[C@@H](C)N(C(=O)c1ccc(Cl)c(Cl)c1)C2` [Compound C192, (6R)-7-(3,4-dichlorobenzoyl)-6-methyl-3-[4-(1-methyl-1H-imidazol-2-yl)phenyl]-2-[(propan-2-yl)amino]-5,6,7,8-tetrahydropyrido[3,4-d]pyrimidin-4(3H)-one] are 36.1 µM and 0.13 µM.
In the case of `COc1ccc(CNc2nc3c(c(=O)n2-c2ccccc2OC)CCN(C(=O)c2ccc(F)c(Cl)c2)C3)cc1` [Compound C3, 7-(3-chloro-4-fluorobenzoyl)-3-(2-methoxyphenyl)-2-{[(4-methoxyphenyl)methyl]amino}-5,6,7,8-tetrahydropyrido[3,4-d]pyrimidin-4(3H)-one], in “in vitro” (human, 4-days incubation (values marked with *)), the CC50 at 4 days is > 50 µM. Also, in series [1] (setting [3]), the EC50 amounted to 8.48 µM.
As to `CNC(=O)c1ccc(-n2c(N[C@@H](C)c3ccccc3)nc3c(c2=O)C[C@@H](C)N(C(=O)c2ccc(Cl)c(Cl)c2)C3)c(Cl)c1` (single isomer, unassigned) [Compound C386a], the CC50 at 3 days in the series “in vitro” (setting [4]) was > 50 µM. Also, in series [1] (setting [5]), the half-maximal effective concentration (EC50) was determined as 0.08 µM.
Consider `CNC(=O)c1ccc(-n2c(NC(C)C)nc3c(c2=O)C[C@@H](C)N(C(=O)c2ccc(Cl)c(Cl)c2)C3)cn1` [Compound C265], for which the CC50 at 3 days in “in vitro” (setting [2]) was > 50 µM. Also, the EC50 in series [1] (setting [3]) was 0.18 µM.
In the same order, the values of `CC(C)Nc1nc2c(c(=O)n1-c1ccc(S(C)(=O)=O)cc1)CCN(C(=O)c1cc3cc(F)c(F)cc3[nH]1)C2` [Compound C165, 7-(5,6-difluoro-1H-indole-2-carbonyl)-3-[4-(methanesulfonyl)phenyl]-2-[(propan-2-yl)amino]-5,6,7,8-tetrahydropyrido[3,4-d]pyrimidin-4(3H)-one] are > 50 µM and 0.05 µM.
`CNC(=O)c1ccc(-n2c(N[C@H](C)CC(=O)O)nc3c(c2=O)C[C@@H](C)N(C(=O)c2ccc(Cl)c(Cl)c2)C3)cc1` [Compound C336, (3R)-3-({(6R)-7-(3,4-dichlorobenzoyl)-6-methyl-3-[4-(methylcarbamoyl)phenyl]-4-oxo-3,4,5,6,7,8-hexahydropyrido[3,4-d]pyrimidin-2-yl}amino)butanoic acid]: the CC50 at 3 days in the series “in vitro” (setting [2]) is > 50 µM. In addition, the EC50 in series [1] (setting [3]) was 7.66 µM.
For `CNC(=O)c1ncc(-n2c(NC(C)C)nc3c(c2=O)C[C@@H](C)N(C(=O)c2ccc(Cl)c(C(F)(F)F)c2)C3)n1C` [Compound C671], the CC50 at 3 days in the series “in vitro” (setting [4]) was > 50 µM. The EC50 in series [1] (setting [5]) stood at 0.05 µM.
Turning to `CC(C)Nc1nc2c(c(=O)n1-c1ccc(S(C)(=O)=O)c(C(F)F)c1)C[C@@H](C)N(C(=O)c1ccc(Cl)c(Cl)c1)C2` [Compound C385], in “in vitro” (setting [4]), the CC50 at 3 days was > 50 µM. In series [1] (setting [5]), the EC50 came out at 0.86 µM.
In the case of `CNC(=O)c1ccc(-n2c(NC(C)C)nc3c(c2=O)C[C@@H](C)N(C(=O)c2ccc(Cl)c(Cl)c2)C3)cn1` [Compound C344], the CC50 at 3 days in “in vitro” (3-days incubation (unmarked values)) was > 50 µM. Further, in series [1], the EC50 amounted to 0.15 µM.
Turning to `CNC(=O)c1n[nH]c(-n2c(NC(C)C)nc3c(c2=O)C[C@@H](C)N(C(=O)c2ccc(Cl)c(Cl)c2)C3)c1C` [Compound C693], the CC50 at 3 days in the series “in vitro” (setting [4]) was > 50 µM. Moreover, the EC50 in series [1] (setting [5]) is 0.11 µM.
With `COc1ccc(CNc2nc3c(c(=O)n2-c2ccc(S(C)(=O)=O)cc2)CCN(C(=O)c2ccc(Cl)c(Cl)c2)C3)cc1` [Compound C84, 7-(3,4-dichlorobenzoyl)-3-[4-(methanesulfonyl)phenyl]-2-{[(4-methoxyphenyl)methyl]amino}-5,6,7,8-tetrahydropyrido[3,4-d]pyrimidin-4(3H)-one], the CC50 at 3 days in “in vitro” (setting [2]) was > 50 µM. In addition, the EC50 in series [1] (setting [3]) is 0.57 µM.
